Test results taken from ChEMBL document CHEMBL1914313, “Monosubstituted γ-lactam and conformationally constrained 1,3-diaminopropan-2-ol transition-state isostere inhibitors of β-secretase (BACE)” (Bioorg Med Chem Lett, 2011).

Experiments:
Beta-secretase 1 [1] = molecular target: T1, Beta-secretase 1 (Homo sapiens, UniProt P56817); assay: Inhibition of BACE1 in human HEK293 cells expressing swedish mutant APP; format: cell-based
Beta-secretase 1 [2] = molecular target: T1, Beta-secretase 1; assay: Inhibition of BACE1 by HPLC method
[3] = Selectivity for BACE1 over cathepsin E
[4] = Selectivity for BACE1 over cathepsin D
[5] = Selectivity for BACE1 over pepsin

T1 sequence (P56817 whole entry): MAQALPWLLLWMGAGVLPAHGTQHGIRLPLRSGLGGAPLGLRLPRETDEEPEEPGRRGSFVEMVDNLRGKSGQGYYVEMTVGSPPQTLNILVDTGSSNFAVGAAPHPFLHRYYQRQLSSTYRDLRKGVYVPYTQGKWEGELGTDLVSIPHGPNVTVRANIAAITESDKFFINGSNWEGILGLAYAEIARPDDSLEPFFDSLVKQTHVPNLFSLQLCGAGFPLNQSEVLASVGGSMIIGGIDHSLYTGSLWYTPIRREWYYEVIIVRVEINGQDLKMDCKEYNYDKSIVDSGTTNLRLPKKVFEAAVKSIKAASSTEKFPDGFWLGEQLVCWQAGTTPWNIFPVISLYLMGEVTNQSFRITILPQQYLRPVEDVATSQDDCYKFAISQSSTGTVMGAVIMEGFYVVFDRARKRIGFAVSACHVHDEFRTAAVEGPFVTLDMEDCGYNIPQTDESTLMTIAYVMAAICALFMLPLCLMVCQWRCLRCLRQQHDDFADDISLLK

| IC50 (Beta-secretase 1 [1]) | IC50 (Beta-secretase 1 [2]) | Selectivity ratio [3] | Selectivity ratio [4] | Selectivity ratio [5] | SMILES |
| --- | --- | --- | --- | --- | --- |
| 510 nM | – | – | – | – | CC(C)C[C@H]1CCN([C@@H](CCc2ccccc2)C(=O)N[C@@H](Cc2cc(F)cc(F)c2)[C@H](O)[C@H]2C[C@@H](Oc3ccccn3)CN2)C1=O |
| 20 nM | 4.2 nM | – | – | – | CCC(C)[C@@]1(NC(C)=O)CCN([C@@H](CCc2ccccc2)C(=O)N[C@@H](Cc2cc(F)cc(F)c2)[C@H](O)[C@H]2Cc3cccc(OC)c3CN2)C1=O (some centres undefined) |
| 220 nM | 75 nM | – | – | – | COc1cccc(CNC[C@@H](O)[C@H](Cc2cc(F)cc(F)c2)NC(=O)[C@H](CCc2ccccc2)N2CC[C@H](C(C)C)C2=O)c1 |
| 1.4 nM | 2.6 nM | – | – | – | CCC(C)[C@@]1(NC(C)=O)CCN([C@@H](CCc2ccccc2)C(=O)N[C@@H](Cc2cc(F)cc(F)c2)[C@H](O)[C@H]2C[C@@H](Oc3ccccc3)CN2)C1=O (some centres undefined) |
| 190 nM | 50 nM | – | – | – | CCC(C)[C@@]1(NC(C)=O)CCN([C@@H](CCc2ccccc2)C(=O)N[C@@H](Cc2cc(F)cc(F)c2)[C@H](O)[C@H]2C[C@H](N)CN2)C1=O (some centres undefined) |
| 240 nM | 20 nM | – | – | – | COc1cccc(CNC[C@@H](O)[C@H](Cc2cc(F)cc(F)c2)NC(=O)[C@H](CCc2ccccc2)N2CC[C@H](CC(C)C)C2=O)c1 |
| 650 nM | 25 nM | – | – | – | CCCC[C@H]1CCN([C@@H](CCc2ccccc2)C(=O)N[C@@H](Cc2cc(F)cc(F)c2)[C@H](O)[C@H]2C[C@@H](O)CN2)C1=O |
| 69 nM | 5.7 nM | – | – | – | CCCO[C@H]1CN[C@@H]([C@@H](O)[C@H](Cc2cc(F)cc(F)c2)NC(=O)[C@H](CCc2ccccc2)N2CC[C@H](CC(C)C)C2=O)C1 |
| 2.7 nM | 2.6 nM | 31 | 31 | 31 | CCCO[C@H]1CN[C@@H]([C@@H](O)[C@H](Cc2cc(F)cc(F)c2)NC(=O)[C@H](CCc2ccccc2)N2CC[C@](NC(C)=O)(C(C)CC)C2=O)C1 (some centres undefined) |
| 400 nM | 480 nM | – | – | – | COC[C@H]1CCN([C@@H](C)C(=O)N[C@@H](Cc2cc(F)cc(F)c2)[C@H](O)CNCc2cccc(OC)c2)C1=O |
| 2 nM | 1.4 nM | – | – | – | CCC(C)[C@@]1(NC(C)=O)CCN([C@@H](CCc2ccccc2)C(=O)N[C@@H](Cc2cc(F)cc(F)c2)[C@H](O)[C@H]2C[C@@H](OCc3cccnc3)CN2)C1=O (some centres undefined) |
| 360 nM | – | – | – | – | CCCC[C@H]1CCN([C@@H](CCc2ccccc2)C(=O)N[C@@H](Cc2cc(F)cc(F)c2)[C@H](O)[C@H]2C[C@@H](Oc3ccccn3)CN2)C1=O |
| 71 nM | 2.7 nM | – | – | – | CCC(C)[C@@]1(NC(C)=O)CCN([C@@H](CCc2ccccc2)C(=O)N[C@@H](Cc2cc(F)cc(F)c2)[C@H](O)[C@H]2C[C@@H](OCc3cccc(C(F)(F)F)c3)CN2)C1=O (some centres undefined) |
| 240 nM | 170 nM | – | – | – | COc1cccc(CNC[C@@H](O)[C@H](Cc2cc(F)cc(F)c2)NC(=O)[C@H](C)N2CC[C@H](C(C)C)C2=O)c1 |
| 2.1 nM | 2.6 nM | – | – | – | CCC(C)[C@@]1(NC(C)=O)CCN([C@@H](CCc2ccccc2)C(=O)N[C@@H](Cc2cc(F)cc(F)c2)[C@H](O)[C@H]2C[C@@H](Oc3ccccn3)CN2)C1=O (some centres undefined) |
| 90 nM | 5.2 nM | – | – | – | CCC[C@@H](O)[C@H]1CCN([C@@H](CCc2ccccc2)C(=O)N[C@@H](Cc2cc(F)cc(F)c2)[C@H](O)CNCc2cccc(OC)c2)C1=O |
| 720 nM | 110 nM | – | – | – | CCCC[C@H]1CCN([C@@H](CCc2ccccc2)C(=O)N[C@@H](Cc2cc(F)cc(F)c2)[C@H](O)[C@H]2C[C@H](O)CN2)C1=O |
| 67 nM | 89 nM | – | – | – | COc1cccc(CNC[C@@H](O)[C@H](Cc2cc(F)cc(F)c2)NC(=O)[C@H](C)N2CC[C@H](CC(C)C)C2=O)c1 |
| 220 nM | 16 nM | – | – | – | CCC[C@@H](O)[C@H]1CCN([C@@H](CCc2ccccc2)C(=O)N[C@@H](Cc2cc(F)cc(F)c2)[C@H](O)[C@H]2C[C@H](O)CN2)C1=O |
| 48 nM | 4.7 nM | – | – | – | CCCO[C@H]1CN[C@@H]([C@@H](O)[C@H](Cc2cc(F)cc(F)c2)NC(=O)[C@H](CCc2ccccc2)N2CC[C@H]([C@H](O)CCC)C2=O)C1 |
| 390 nM | 160 nM | – | – | – | CCCO[C@H]1CN[C@@H]([C@@H](O)[C@H](Cc2cc(F)cc(F)c2)NC(=O)[C@H](C)N2CC[C@H](C(C)C)C2=O)C1 |
| 55 nM | 70 nM | – | – | – | CCCO[C@H]1CN[C@@H]([C@@H](O)[C@H](Cc2cc(F)cc(F)c2)NC(=O)[C@H](C)N2CC[C@H]([C@H](O)CCC)C2=O)C1 |
| 870 nM | 40 nM | – | – | – | CCC[C@@H](O)[C@H]1CCN([C@@H](C)C(=O)N[C@@H](Cc2cc(F)cc(F)c2)[C@H](O)[C@H]2C[C@H](O)CN2)C1=O |
| 4.2 nM | 3 nM | – | – | – | CCC(C)[C@@]1(NC(C)=O)CCN([C@@H](CCc2ccccc2)C(=O)N[C@@H](Cc2cc(F)cc(F)c2)[C@H](O)[C@H]2C[C@@H](OCc3cccc(C#N)c3)CN2)C1=O (some centres undefined) |
